What all share (type): binding
One test addresses T1, ACK (Homo sapiens, UniProt Q07912).
T1 construct: screened for activity against several kinases in Jurkat cells; endogenous in cells; host or cells: Jurkat cell lysate
The test can be described thus: Probe-based (AX9989) kinase profiling in Jurkat lysate: ACK. The settings on record: read-out: Kinase inhibition % at indicated screening concentration: ACK; for inhibition at 1 µM: screening concentration 1.0 μM; for inhibition at 0.1 µM: screening concentration 0.1 μM. The procedure, abridged:
(§1)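 Percent inhibition was derived from reduced LC/MS fragment intensities of probe-labeled peptides relative to compound-free controls. Before labeling with 5 μM AX9989, Mn2+-supplemented (20 mM) Jurkat lysate was exposed to compound for 15 min at room temperature.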

A further test has as its system ABL or ARG. As to the kind of experiment: Probe-based (AX9989) kinase profiling in Jurkat lysate: ABL or ARG. In a few lines: as §1
The next test has as its target T2, AurA (Homo sapiens, UniProt O14965).
T2 construct: screened for activity against several kinases in Jurkat cells; endogenous in cells; host or cells: Jurkat cell lysate
T2 sequence (O14965 1-403): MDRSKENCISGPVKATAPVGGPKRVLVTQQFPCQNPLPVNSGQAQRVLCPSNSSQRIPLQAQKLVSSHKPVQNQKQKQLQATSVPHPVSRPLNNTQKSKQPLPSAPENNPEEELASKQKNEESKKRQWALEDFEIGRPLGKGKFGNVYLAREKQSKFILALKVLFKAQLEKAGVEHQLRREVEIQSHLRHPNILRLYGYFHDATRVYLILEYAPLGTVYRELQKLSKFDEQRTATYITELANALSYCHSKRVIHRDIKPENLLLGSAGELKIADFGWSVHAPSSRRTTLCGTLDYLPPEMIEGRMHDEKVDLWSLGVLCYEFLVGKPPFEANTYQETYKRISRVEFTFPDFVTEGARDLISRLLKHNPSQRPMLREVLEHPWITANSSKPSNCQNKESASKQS
As to the kind of experiment: Probe-based (AX9989) kinase profiling in Jurkat lysate: AurA. As to conditions: read-out: Kinase inhibition % at indicated screening concentration: AurA; for inhibition at 1 µM: screening concentration 1.0 μM; for inhibition at 0.1 µM: screening concentration 0.1 μM. In a few lines: as §1

In test [1] the target is T3, BRD4 bromodomain domain I [BRD4(1)] (Homo sapiens, UniProt O60885).
T3 construct: BRD4 bromodomain domain I [BRD4(1)]; purchased Cayman Chemicals
The test can be described thus: BRD4 bromodomain domain 1 inhibition assay (TR-FRET). As to conditions: screening concentration 10 μM. In a few lines:
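0.5% DMSO, in triplicate, using Cayman BRD4(1) TR-FRET protocol with slight modification. 670/620 nm ratio normalized to 10 μM JQ1, with DMSO control set as 0% inhibition.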
In general terms: In TR-FRET formats the signal depends on donor and acceptor labels being close together.

T1 sequence (Q07912 whole entry): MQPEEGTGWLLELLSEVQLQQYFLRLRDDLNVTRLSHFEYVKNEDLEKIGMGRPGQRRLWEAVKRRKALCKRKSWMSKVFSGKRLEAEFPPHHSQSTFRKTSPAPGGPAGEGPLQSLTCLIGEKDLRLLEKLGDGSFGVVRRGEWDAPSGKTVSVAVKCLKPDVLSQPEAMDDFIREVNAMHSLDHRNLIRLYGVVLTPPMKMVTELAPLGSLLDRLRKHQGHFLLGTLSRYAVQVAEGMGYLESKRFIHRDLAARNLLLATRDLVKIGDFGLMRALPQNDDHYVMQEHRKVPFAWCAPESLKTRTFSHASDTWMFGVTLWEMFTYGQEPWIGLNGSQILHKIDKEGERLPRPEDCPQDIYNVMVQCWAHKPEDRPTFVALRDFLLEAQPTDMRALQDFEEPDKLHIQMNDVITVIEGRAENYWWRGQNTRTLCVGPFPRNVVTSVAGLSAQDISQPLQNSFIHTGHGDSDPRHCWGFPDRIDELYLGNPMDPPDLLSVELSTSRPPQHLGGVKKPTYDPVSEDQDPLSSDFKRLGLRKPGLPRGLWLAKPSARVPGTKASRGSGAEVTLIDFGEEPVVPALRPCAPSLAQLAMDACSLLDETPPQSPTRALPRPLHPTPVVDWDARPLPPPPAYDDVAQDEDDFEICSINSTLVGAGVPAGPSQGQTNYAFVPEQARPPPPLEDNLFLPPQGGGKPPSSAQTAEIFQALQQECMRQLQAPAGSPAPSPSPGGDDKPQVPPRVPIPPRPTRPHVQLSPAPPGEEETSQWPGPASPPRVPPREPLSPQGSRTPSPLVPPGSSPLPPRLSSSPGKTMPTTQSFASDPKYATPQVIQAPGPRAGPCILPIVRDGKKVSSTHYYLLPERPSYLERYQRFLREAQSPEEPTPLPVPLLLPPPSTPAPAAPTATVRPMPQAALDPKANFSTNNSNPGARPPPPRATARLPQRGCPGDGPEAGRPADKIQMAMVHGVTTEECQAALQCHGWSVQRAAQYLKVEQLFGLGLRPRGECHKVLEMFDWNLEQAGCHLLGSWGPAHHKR

For `CCOc1cc(C(=O)N2CCCCC2)ccc1Nc1cc2c(cn1)N(C)C(=O)c1ccccc1N2C` [Compound 12], the inhibition at 1 µM at ACK and at AurA was at most 35% throughout. Besides, in the test with ABL or ARG (screening concentration 1.0 μM), the “Kinase inhibition % at indicated screening concentration: ABL or ARG” value (from here on “Kinase inhibition %”) was “E (E is ≦35%)”. For the same molecule, the inhibition at 10 µM in test [1] was in the range of 70 to 85%.
For `CCOc1cc(C(=O)N2CCC(N3CCCC3)C2)ccc1Nc1cc2c(cn1)N(C)C(=O)c1occc1N2C` (stereo not shown) [Compound 15], the inhibition at 0.1 µM at ACK and at AurA was at most 35% in each case. Moreover, the “Kinase inhibition %” value in the test on ABL or ARG (screening concentration 0.1 μM) is “E (E is ≦35%)”. Also, the inhibition at 10 µM in test [1] is over 85%.
For `CCOc1cc(C(=O)N2CC[C@H](O)C2)ccc1Nc1cc2c(cn1)N(C)C(=O)c1occc1N2C` [Compound 17], the inhibition at 0.1 µM on ACK and at AurA was at most 35% each time. For the same molecule, the “Kinase inhibition %” value with ABL or ARG (screening concentration 0.1 μM) was “E (E is ≦35%)”. For the same molecule, the inhibition at 10 µM in test [1] is over 85%.
For `C=CCN1CCN(C(=O)c2ccc(Nc3cc4c(cn3)N(C)C(=O)c3ccccc3N4C)c(OCC)c2)CC1` [Compound 21], the inhibition at 0.1 µM on ACK and at AurA was at most 35% each time. The “Kinase inhibition %” value in the test on ABL or ARG (screening concentration 0.1 μM) is “E (E is ≦35%)”. In addition, in test [1], the inhibition at 10 µM fell in the range of 70 to 85%.
`CCOc1cc(C(=O)N2CC[C@@H](N3CCCC3)C2)ccc1Nc1cc2c(cn1)N(C)C(=O)c1ccccc1N2C` [Compound 24]: the inhibition at 0.1 µM at ACK and at AurA was at most 35% throughout. For the same molecule, in the test with ABL or ARG (screening concentration 0.1 μM), the “Kinase inhibition %” value is recorded as “E (E is ≦35%)”. The inhibition at 10 µM in test [1] was over 85%.
On to `CCOc1cc(C(=O)N2CC[C@@H](N(C)C)C2)ccc1Nc1cc2c(cn1)N(C)C(=O)c1occc1N2C` [Compound 25], for which the inhibition at 0.1 µM at ACK and at AurA was at most 35% in each case. For the same molecule, the “Kinase inhibition %” value with ABL or ARG (screening concentration 0.1 μM) is “E (E is ≦35%)”. Also, the inhibition at 10 µM in test [1] was over 85%.
For the molecule `CCOc1cc(C(=O)N(C)CCN2CCCC2)ccc1Nc1cc2c(cn1)N(C)C(=O)c1ccccc1N2C` [Compound 28], the inhibition at 0.1 µM at ACK and on AurA was at most 35% in each case. Also, in the test with ABL or ARG (screening concentration 0.1 μM), the “Kinase inhibition %” value was “E (E is ≦35%)”. Moreover, the inhibition at 10 µM in test [1] was over 85%.
In the case of `CCOc1cc(C(=O)N(C)CCn2ccnc2)ccc1Nc1cc2c(cn1)N(C)C(=O)c1ccccc1N2C` [Compound 30], the inhibition at 0.1 µM at ACK and on AurA was at most 35% throughout. Also, the “Kinase inhibition %” value with ABL or ARG (screening concentration 0.1 μM) is on record as “E (E is ≦35%)”. Moreover, the inhibition at 10 µM in test [1] was 70 to 85%.
Take `CCOc1cc(C(=O)N2CCNC[C@@H]2C)ccc1Nc1cc2c(cn1)N(C)C(=O)c1ccccc1N2C` [Compound 31]: the inhibition at 0.1 µM on ACK and on AurA was at most 35% throughout. Also, in the test on ABL or ARG (screening concentration 0.1 μM), the “Kinase inhibition %” value is on record as “E (E is ≦35%)”. Also, the inhibition at 10 µM in test [1] was over 85%.
Regarding `CCOc1cc(C(=O)N2CCN(CCO)CC2)ccc1Nc1cc2c(cn1)N(C)C(=O)c1ccccc1N2C` [Compound 37], the inhibition at 0.1 µM on ACK and on AurA was at most 35% each time. In addition, the “Kinase inhibition %” value in the test on ABL or ARG (screening concentration 0.1 μM) is reported as “E (E is ≦35%)”. The inhibition at 10 µM in test [1] lay in the range of 70 to 85%.
On to `CCOc1cc(C(=O)N2CCN(C3CC3)CC2)ccc1Nc1cc2c(cn1)N(C)C(=O)c1ccccc1N2C` [Compound 39], for which the inhibition at 0.1 µM at ACK and on AurA was at most 35% throughout. Further, in the test with ABL or ARG (screening concentration 0.1 μM), the “Kinase inhibition %” value was “E (E is ≦35%)”. The inhibition at 10 µM in test [1] was under 70%.
As for `CCOc1cc(C(=O)N2CCC(N3CCN(C)CC3)CC2)ccc1Nc1cc2c(cn1)N(C)C(=O)c1ncccc1N2C` [Compound 40], the inhibition at 1 µM at ACK and on AurA was at most 35% each time. The “Kinase inhibition %” value in the test with ABL or ARG (screening concentration 1.0 μM) was “E (E is ≦35%)”. In test [1], the inhibition at 10 µM is under 70%.
For the molecule `CCOc1cc(C(=O)N(C)CCN(CC)CC)ccc1Nc1cc2c(cn1)N(C)C(=O)c1ccccc1N2C` [Compound 42], the inhibition at 1 µM at ACK and at AurA was at most 35% throughout. In the test with ABL or ARG (screening concentration 1.0 μM), the “Kinase inhibition %” value is “E (E is ≦35%)”. In test [1], the inhibition at 10 µM was over 85%.
Consider `CCOc1cc(C(=O)N2CCC(NC)C2)ccc1Nc1cc2c(cn1)N(C)C(=O)c1occc1N2C` (stereo not shown) [Compound 43], for which the inhibition at 0.1 µM on ACK and on AurA was at most 35% throughout. For the same molecule, the “Kinase inhibition %” value with ABL or ARG (screening concentration 0.1 μM) is “E (E is ≦35%)”. Also, the inhibition at 10 µM in test [1] is over 85%.
Regarding `CCOc1cc(C(=O)NCCN2CCN(C)CC2)ccc1Nc1cc2c(cn1)N(C)C(=O)c1ccccc1N2C` [Compound 44], the inhibition at 1 µM at ACK and at AurA was at most 35% in each case. Further, the “Kinase inhibition %” value in the test with ABL or ARG (screening concentration 1.0 μM) was “E (E is ≦35%)”. In test [1], the inhibition at 10 µM fell in the range of 70 to 85%.
Regarding `CN1C(=O)c2ccccc2N(C)c2cc(N[C@H]3CC[C@H](NC4=NCCO4)CC3)ncc21` [Compound 45], the inhibition at 1 µM at ACK and on AurA was at most 35% each time. Besides, the “Kinase inhibition %” value in the test with ABL or ARG (screening concentration 1.0 μM) is “E (E is ≦35%)”. The inhibition at 10 µM in test [1] was under 70%.

Source of the values: patent publication US20170008888A1 (KYORIN PHARMACEUTICAL CO., LTD., priority 2014, published 2017).
